Values of other authors as cited in patent US10561630B2, “Hydroxycitric acid compounds and capsule liquid delivery” (GLYKON TECHNOLOGIES GROUP, LLC, priority 2016, dated 2020).

Columns and labels:
[1] = 2-week period
[2] = single large oral dose or two divided oral doses; min. 2.63 mmoles/kg once per day or 0.33 mmoles/kg twice per day; high-sugar diet

In the case of `O=C(O)CC(O)(C(=O)O)C(O)C(=O)O` (single isomer, unassigned; (-)) [HCA, (−)-hydroxycitric acid], the food intake decreased ([1]; 900 mg HCA, dissolved in 100 ml tomato juice) is listed as 15-30%, the weight loss [1] is listed as “no significant weight loss” and the “reduction in food consumption” value [2] is listed as ≥ 10%.
